The values below come from ChEMBL document CHEMBL1130490, “The Role of 4-phosphonodifluoromethyl- and 4-phosphono-phenylalanine in the selectivity and cellular uptake of SH2 domain ligands” (Bioorg Med Chem Lett, 1997).

Where a SMILES comes first, the peptide text is derived from it. [ ]: non-standard residue; d: D form. pY = N[C@@H](Cc1ccc(OP(=O)(O)O)cc1)C(=O)O

The species entered for one assay is Mus musculus. Nature of the assay: Uptake rate for compound into Balbc3T3 cells normalized to 100 uM was measured. Format: functional.
Assay [1] deals with T1, Tyrosine-protein kinase ABL1 (Homo sapiens, UniProt P00519). Nature of the assay: Radioligand displacement assay for the binding of [125I]Glu-Pro-Gln-pTyr-Glu-Glu-Ile-Pro-Ile-Tyr-Leu to ABL SH2 domain. (Displacement assays read how much labelled ligand stays bound in the presence of the test substance.)
The target in assay [2] is T1, Tyrosine-protein kinase ABL1. Nature of the assay: Inhibition of [35S]-labeled SH2-GST Abl binding to the phospho-PDGF receptor intracellular domain.

T1 sequence (P00519 whole entry, the tested form may be a part): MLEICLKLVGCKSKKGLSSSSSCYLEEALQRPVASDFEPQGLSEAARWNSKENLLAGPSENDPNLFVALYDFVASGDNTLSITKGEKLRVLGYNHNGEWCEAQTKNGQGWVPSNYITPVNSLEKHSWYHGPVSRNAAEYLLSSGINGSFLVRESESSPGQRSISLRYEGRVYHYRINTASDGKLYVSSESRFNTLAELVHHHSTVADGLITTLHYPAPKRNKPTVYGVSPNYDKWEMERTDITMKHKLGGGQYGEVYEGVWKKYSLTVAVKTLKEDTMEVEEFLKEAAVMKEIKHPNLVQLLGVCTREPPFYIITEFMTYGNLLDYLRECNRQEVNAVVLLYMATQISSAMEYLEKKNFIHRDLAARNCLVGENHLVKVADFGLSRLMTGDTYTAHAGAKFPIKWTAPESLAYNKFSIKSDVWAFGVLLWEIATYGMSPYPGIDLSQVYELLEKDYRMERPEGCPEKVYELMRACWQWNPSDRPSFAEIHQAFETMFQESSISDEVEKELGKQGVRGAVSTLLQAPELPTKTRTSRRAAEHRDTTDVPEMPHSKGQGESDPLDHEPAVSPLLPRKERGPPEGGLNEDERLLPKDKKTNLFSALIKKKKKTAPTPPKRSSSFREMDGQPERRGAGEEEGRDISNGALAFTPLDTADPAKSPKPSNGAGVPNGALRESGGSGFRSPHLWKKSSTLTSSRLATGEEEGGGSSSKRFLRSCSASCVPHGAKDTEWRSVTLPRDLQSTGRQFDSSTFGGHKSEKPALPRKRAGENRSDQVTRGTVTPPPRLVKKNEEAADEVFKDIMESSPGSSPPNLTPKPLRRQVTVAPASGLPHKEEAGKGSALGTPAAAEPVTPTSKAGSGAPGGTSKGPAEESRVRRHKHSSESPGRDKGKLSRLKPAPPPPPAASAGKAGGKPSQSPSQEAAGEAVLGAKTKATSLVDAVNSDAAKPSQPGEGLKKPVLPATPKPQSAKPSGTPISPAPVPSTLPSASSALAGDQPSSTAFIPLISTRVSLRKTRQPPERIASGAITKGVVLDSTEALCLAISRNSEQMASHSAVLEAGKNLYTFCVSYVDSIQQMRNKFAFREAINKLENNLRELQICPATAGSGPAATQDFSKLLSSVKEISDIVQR

With `CCOP(=O)(OCC)C(F)(F)c1ccc(C[C@H](NC(C)=O)C(=O)N[C@@H](CCC(=O)OC(C)(C)C)C(=O)N(C)CCCC2CCCCC2)cc1`, the Uptake rate (nM min-1 cm**-2) in the assay listed under Mus musculus was 3.2.

`CC[C@H](NC(=O)[C@H](Cc1ccc(P(=O)(OCOC(=O)C(C)(C)C)OCOC(=O)C(C)(C)C)cc1)NC(C)=O)C(=O)N(C)CCCC1CCCCC1` showed an Uptake rate (nM min-1 cm**-2) in the assay listed under Mus musculus of 6.6.

For the molecule `CC[C@H](C)[C@H](NC(=O)[C@H](CCC(=O)O)NC(=O)[C@H](CCC(=O)O)NC(=O)[C@H](Cc1ccc(OP(=O)(O)O)cc1)NC(C)=O)C(=O)N[C@@H](CCC(=O)O)C(=O)O` (Ac-[pY]EEIE-OH), the IC50 in assay [1] was found to be 7.9 µM; in assay [2] it was 15 µM.

In the assay filed under Mus musculus, `CCOP(=O)(OCC)c1ccc(C[C@H](NC(C)=O)C(=O)N[C@@H](CC)C(=O)N(C)CCCC2CCCCC2)cc1` displayed an Uptake rate (nM min-1 cm**-2) of 0.092.

`CC[C@H](NC(=O)[C@H](Cc1ccc(C(F)(F)P(=O)(O)OCOC(=O)C(C)(C)C)cc1)NC(C)=O)C(=O)N(C)CCCC1CCCCC1` gave an Uptake rate (nM min-1 cm**-2) in the assay filed under Mus musculus of 0.01.

For `CCOP(=O)(OCC)C(F)(F)c1ccc(C[C@H](NC(C)=O)C(=O)N[C@@H](CCC(=O)O)C(=O)N(C)CCCC2CCCCC2)cc1`, in the assay filed under Mus musculus, the Uptake rate (nM min-1 cm**-2) is > 0.002.

The term IC50 denotes the concentration that inhibits the measured activity by half. Low readings indicate higher potency, high ones lower potency.
